Results on seven compounds are retold here after patent US9572862B2, “Methods for promoting lipolysis and oxidation in liver and adipose tissue using catestatin” (The Regents of the University of California, priority 2012, dated 2017).

“Also recorded” adds a separate entry of the source. Non-standard residues stand in square brackets, D forms with d.

The subject of data set [1] is Chga-/- mice. As to the kind of experiment: Blood pressure in hypertensive Chga-KO mice. The class given is in vivo.
The subject of data set [2] is CST-KO mice. Briefly: ITT in insulin resistant CST-KO mice with CST, RI-CST or NSC-177941. The format is in vivo. The settings on record: for insulin sensitivity during ITT: NCD-fed CST-KO mice, insulin 0.4 mU/g BW. From the text: FIG. 16. […] Figures in parentheses indicate number of animals.
The test system of data set [3] is Chga-/- mice. The note with it: reference (8), cited from earlier work.
The conditions of data set [4]: reference (8); cited from earlier work.
Data set [5] in a line: Screening of CST structural analogs for blood pressure reduction. The note with it: in vivo.
Data set [6] deals with Chk2 protein kinase (Homo sapiens, UniProt O96017). The settings on record: Jobson et al. (9); cited from earlier work.
Sequence of Chk2 protein kinase (O96017 whole entry): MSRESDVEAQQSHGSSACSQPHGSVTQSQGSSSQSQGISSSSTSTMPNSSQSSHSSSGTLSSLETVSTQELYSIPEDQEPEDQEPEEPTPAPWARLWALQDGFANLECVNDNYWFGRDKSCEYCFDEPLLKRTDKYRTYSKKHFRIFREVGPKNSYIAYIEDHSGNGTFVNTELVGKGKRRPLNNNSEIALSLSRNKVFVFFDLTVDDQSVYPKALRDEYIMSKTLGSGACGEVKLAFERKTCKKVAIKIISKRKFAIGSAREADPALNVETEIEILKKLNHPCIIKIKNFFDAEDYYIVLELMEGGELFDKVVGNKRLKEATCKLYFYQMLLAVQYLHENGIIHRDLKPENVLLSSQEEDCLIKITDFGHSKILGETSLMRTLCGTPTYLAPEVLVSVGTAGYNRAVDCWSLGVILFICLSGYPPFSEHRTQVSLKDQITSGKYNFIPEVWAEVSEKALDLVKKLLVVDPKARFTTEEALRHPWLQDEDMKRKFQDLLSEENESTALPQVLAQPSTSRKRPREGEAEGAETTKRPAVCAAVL
The test system of data set [7] is 3T3-L1 adipocytes. Briefly: cAMP production in 3T3-L1 adipocytes. The class given is cell-based. The settings on record: CST 100 nM, ISO 10 μM, 10 min.
Data set [8] relates to PC-12 neuroendocrine cells. Briefly: cAMP production in PC-12 cells. The format is cell-based. The note with it: CST 100 nM, ISO 10 μM, 10 min.
Data set [9] relates to primary adipocytes. Briefly: Lipolytic glycerol release from primary adipocytes. The format is cell-based, mice. The settings on record: for effect on the lipolytic effect of isoproterenol: adipocytes, with isoproterenol 10 μM. As to the method:
Mice were fasted for 12 hr prior to blood draw. Triglycerides (TG) and non-esterified fatty acids (NEFA) were assayed using kits from Wako Diagnostics (Richmond, Va.). Glycerol was assayed using a kit from Sigma (St Louis, Mo.). Media from the explant cultures and mouse serum were analysed for glycerol and NEFA as a measure of lipolysis. ELISA kits were used to determine plasma levels of leptin, adiponectin (Millipore, Billerica, Mass.) and CST (Bachem, Torrance, Calif.). For CST assay, plasma samples and reference standards were passed through mini C18 columns and the flow-through fractions were assayed. The same kits were used for measurements in culture media.
Primary adipocytes were isolated from epididymal fat pads essentially as described (43). Adipose tissues from WT and Chga-KO mice were minced in Krebs-Ringer bicarbonate-Hepes (KRBH) buffer, pH 7.4, containing 10 mM bicarbonate, 30 mM Hepes, 200 nM adenosine, 2.5 mM glucose and 1% fatty-acid-free BSA, and digested for 30-40 min with Type I collagenase (10 mg/g tissue; Invitrogen, Carlsbad, Calif.) with gentle swirling in a 37° C. incubator. The digestion mixture was then filtered through a nylon strainer and centrifuged at 400×g for 1 min. The oily layer (released from broken cells) above floating fat cells was skimmed off, and fat cells were recovered from the top and washed three times with warm KRBH.

Data set [10] relates to HFD-fed Chga-KO mice. As to the kind of experiment: Peptide supplementation to HFD-fed Chga-KO mice (insulin sensitivity). The class given is in vivo. The settings on record: HFD (60%)-fed Chga-KO mice.
For data set [11], the system named is AMPK and Stat3 phosphorylation. As to the kind of experiment: AMPK and Stat3 signaling in adipose tissue explants from Chga-KO mice. The class given is cell-based. The note with it: leptin 1 μM 30 min. How it is done: FIG. 6. Regulation of AMPK and Stat3 signaling by CST in adipose tissue explants. Explants from Chga-KO mice were treated with saline or CST (100 nM for 30 min) and immunoblotted for pAMPK and AMPK (A). Adipose explants from WT and Chga-KO mice were immunoblotted for pAMPK and AMPK after treatment with saline or leptin (1 μM) for 30 min (B). pAMPK and AMPK (C) and pStat3 and Stat3 (D) signaling in adipose explants from WT and Chga-KO mice after treatment for 30 min with saline, CST (100 nM), leptin (1 μM) or leptin plus CST.
(§1) Adipose tissue explants were prepared as described (42). Epididymal fat pads from 12 hr fasted WT, Chga-KO, DIO and Ob/Ob mice with or without CST treatment were collected in Kreb-Ringer-phosphate (KRP) buffer containing 10 mM Hepes and 0.5% BSA. Tissues were minced to 1-2 mm size and treated with 100 nM CST, 1 μM leptin, or saline for 30 min (for signaling analysis) or 3 hr (for lipolysis and β-oxidation assays). Explants were also treated acutely with CST, leptin, a combination, or saline. At the end, incubation media were saved for analysis of glycerol and fatty acid release. Explants were washed prior to homogenization for immunoblotting and analysis of fatty acid oxidation.
(§2) Adipose tissue explants after treatments ex vivo and tissues from mice treated in vivo were homogenized in a buffer containing phosphatase and protease inhibitors (20 mM Tris/HCl (pH 7.5), 250 mM sucrose, 2 mM EDTA, 2 mM EGTA, 2 mM Na3VO4, 10 mM NaF, 2 mM Na4P2O7, 1 mM phenylmethylsulfonyl fluoride, 20 μg/ml leupeptin, 10 μg/ml aprotinin, and 1 μM LR-microcystin) as described (38,44). Homogenates were subjected to SDS-PAGE and immunoblotted. Primary antibodies for AMPK and Stat3 were from Cell Signaling Technology (Beverly, Mass.). The chemiluminescence kit was from Pierce (Rockford, Ill.).

Data set [12] concerns adipose tissue explants from DIO mice. As to the kind of experiment: Lipolysis and fatty acid oxidation in adipose explants of DIO mice. The format is cell-based. How it is done:
(§3) FIG. 8. Lipolysis and fatty acid oxidation in the adipose tissue explants of DIO and Ob/Ob mice after treatment with saline or CST for 16 days. Explants were incubated with saline or leptin (1 μM) for 3 hr and the concentrations of glycerol (A&C) and NEFA (B&D) released into the media from DIO (A&B) and Ob/Ob (C&D) explants were determined as a measure of lipolysis. Homogenates of the explants from DIO (E) and Ob/Ob […] were used to determine their capacity for oxidation of U-^14C-palmitate in response to the treatment with saline, CST, leptin and CST+leptin. The ^14CO2 released was captured and counted as the measure of fatty acid oxidation.
as §1
(§4) Oxidation of radiolabeled palmitate in the homogenates of adipose tissue explants as described previously (45). For oxidation studies of cultured cells, HepG2 (hepatocytes) and 3T3-L1 preadipocytes were obtained from ATCC and cultured following supplier's protocol. Confluent 3T3-L1 cultures were differentiated into adipocytes by treating with a cocktail of dexamethasone (100 nM), IBMX ([…]) and insulin (100 nM) for 10 days. Media were then switched to serum-free DMEM with 1% BSA. Hepatocytes were assayed for lipogenesis and fat oxidation in response to CST treatment. Serum-free cultures were treated with CST (100 nM) for 24 hr followed by a 2 hr incubation with U^14C-palmitate (0.5 μCi/ml). Fatty acid oxidation in cells was determined by modifying a published method (46). Specifically, the culture media in 24-well plates were acidified with 10% HClO4 after incubation with the labeled fatty acid and immediately covered with a thick filter paper sheet (cut to size) soaked in 2 N NaOH and placed underneath the plastic lid. The whole plate was sealed with parafilm. After further incubation for 2 hr, the filter paper sheet was marked as circles around the rim of the wells and then the circles were excised. The filter discs were counted to determine the amount of ^14CO2 absorbed in the papers. Cells in the culture wells were lysed in 1 N NaOH and protein content was assayed using Folin's reagent (BioRad, Hercules, Calif.).

For data set [13], the system named is adipose tissue explants from Ob/Ob mice. As to the kind of experiment: Lipolysis and fatty acid oxidation in adipose explants of Ob/Ob mice. The format is cell-based. As to the method: as §3, §1, §4
In data set [14] the test system is STAT3 and AMPK phosphorylation. As to the kind of experiment: Stat3 and AMPK signaling in adipose explants from DIO mice. The format is cell-based. The note with it: CST in vivo, leptin 1 μM ex vivo 30 min. As to the method:
(§5) FIG. 9. Stat3 and AMPK signaling in the adipose tissue explants from DIO and Ob/Ob mice treated with saline, CST (in vivo) and leptin (ex vivo). Explants from DIO mice (A&B) and Ob/Ob mice (C&D) were incubated with saline or leptin (1 μM) for 30 min, homogenized and immunoblotted for phospho- and total Stat3 (A&C) as well as phospho- and total AMPK signals (B&D). Results are presented as the ratio of signal strength of phospho-over total.
as §1, §2

Data set [15] has as its system STAT3 and AMPK phosphorylation. As to the kind of experiment: Stat3 and AMPK signaling in adipose explants from Ob/Ob mice. The format is cell-based. The note with it: CST in vivo, leptin 1 μM ex vivo 30 min. As to the method:
as §5, §1, §2

Setting [16] is: CST in vivo 16 days, leptin 1 μM ex vivo 3 hr.

In the case of “amino-l372qpGpGrfGyararfslkmss352-carboxyl (SEQ ID NO:27) (H-[dL][dQ][dP]G[dP]G[dR][dF]G[dY][dA][dR][dA][dR][dF][dS][dL][dK][dM][dS][dS]-OH; SMILES CSCC[C@@H](NC(=O)[C@@H](CCCCN)NC(=O)[C@@H](CC(C)C)NC(=O)[C@@H](CO)NC(=O)[C@@H](Cc1ccccc1)NC(=O)[C@@H](CCCNC(=N)N)NC(=O)[C@@H](C)NC(=O)[C@@H](CCCNC(=N)N)NC(=O)[C@@H](C)NC(=O)[C@@H](Cc1ccc(O)cc1)NC(=O)CNC(=O)[C@@H](Cc1ccccc1)NC(=O)[C@@H](CCCNC(=N)N)NC(=O)CNC(=O)[C@H]1CCCN1C(=O)CNC(=O)[C@H]1CCCN1C(=O)[C@@H](CCC(N)=O)NC(=O)[C@H](N)CC(C)C)C(=O)N[C@H](CO)C(=O)N[C@H](CO)C(=O)O) [RI-CST, retro-inverso peptide equivalent of human CST]”, the “interval for which the therapeutic BP effect was sustained” value in data set [1] (R-I versus W-T isoform) was above 8 h. The “high BP phenotype” value in [1] (monogenic model of hypertension) is on record as “effective in rescuing (reducing) the high BP phenotype”. Besides, the “persistence of the insulin-sensitizing effect” value in data set [2] (ITT in CST-KO mice) is on record as “persisted throughout the experimental period”. Besides, the “insulin sensitivity during ITT” value in data set [2] is given as “increasing sensitivity to insulin; also recorded: Improvement in insulin sensitivity”. In addition, in data set [3] (compared to CST), the “period of BP suppression” value is above 8 h. For the same compound, the SBP result in data set [3] (hypertensive Chga-KO mice) is listed as “functional in reducing SBP”. For the same compound, the protease degradation entry in [4] is “fairly resistant”.
With `C/C(=N\N=C(N)N)c1cccc(NC(=S)Nc2cccc(/C(C)=N/N=C(N)N)c2)c1` [NSC-177941, 1,3-bis[3-[(E)-N-(diaminomethyllideneamino)-C-methylcarbonimidoyl]phenyl]thiourea], in [2] (ITT in CST-KO mice), the “effect on insulin sensitivity in the first 30 min” value is given as “ineffective” and the “time window of increase in insulin sensitivity” value fell in the range of 30 to 90 min. Further, the “insulin sensitivity during ITT” value in data set [2] was “transient increase in insulin sensitivity”. Besides, in [2] (listed as NSC-177941), the “insulin sensitivity during ITT” value is listed as “Improvement in insulin sensitivity”. In data set [5], the blood pressure result is on record as “reducing blood pressure”. In data set [6], the “inhibition of Chk2 protein kinase activity” value was “inactive”.
For `CC(C)NCC(O)c1ccc(O)c(O)c1` (racemic) [isoproterenol, (RS)-4-[1-hydroxy-2-(isopropylamino)ethyl]benzene-1,2-diol, reference compound], the cAMP production result in data set [7] and in [8] was “stimulated” in each case.
As for `CNC[C@H](O)c1cccc(O)c1` [phenylephrine, (R)-3-[-1-hydroxy-2-(methylamino)ethyl]phenol], in data set [9], the “effect on the lipolytic effect of isoproterenol” value was “dampened”.
Consider “PST: anti-insulin CHGA-derived peptide pancreastatin (CHGA250-301) [reference compound]”, for which the “insulin sensitivity (GTT)” value in data set [10] was “reversed the phenotype”.
Regarding `Cc1ccc(N(CC2=NCCN2)c2cccc(O)c2)cc1` [phentolamine, 3-[(4,5-dihydro-1H-imidazol-2-ylmethyl)(4-methylphenyl)amino]phenol], the “effect on the lipolytic effect of isoproterenol” value in data set [9] was “potentiated”. Moreover, the “glycerol release (lipolysis)” value in data set [9] (primary adipocytes, substance alone) is “stimulated lipolysis”.
For “leptin: adipokine hormone, ligand of leptin receptor (Ob-R)”, in data set [11], the “phosphorylation of AMPK following acute leptin treatment, compared to WT” value is on record as “decreased” and the “phosphorylation of STAT3 following acute leptin treatment, compared to WT” value was “decreased”. The palmitate oxidation entry in [12] is “neither CST nor leptin alone stimulated oxidation”. In data set [12] (setting [16]), the “NEFA release in the media” value was “did not stimulate lipolysis” and the “glycerol release in the media” value is on record as “did not stimulate lipolysis”. The palmitate oxidation entry in [13] was “stimulatory for oxidation”. In addition, the “lipolysis (glycerol and NEFA release)” value in data set [13] (setting [16]) is on record as “stimulated lipolysis”. In data set [14], the AMPK phosphorylation entry is reported as “did not stimulate” and the STAT3 phosphorylation entry is “did not stimulate”. Further, in data set [15], the AMPK phosphorylation entry is “stimulated phosphorylation” and the STAT3 phosphorylation result is on record as “stimulated phosphorylation”.
